A word on the IC50: it is the midpoint of a concentration-inhibition curve.

For 5 molecules, IC50 results are on record in BindingDB's records for doi:10.1038/nchembio.2087 (University of Oxford, 2016).

What all share (assay): Demethylase AlphaScreen Assay
Common to all, as to conditions: pH 7.5
Background: Alpha assays give light when donor and acceptor beads are brought close together.

Test [1] has as its target T1, Lysine-specific demethylase 2A (Homo sapiens, UniProt Q9Y2K7).
T1 sequence (Q9Y2K7 whole entry): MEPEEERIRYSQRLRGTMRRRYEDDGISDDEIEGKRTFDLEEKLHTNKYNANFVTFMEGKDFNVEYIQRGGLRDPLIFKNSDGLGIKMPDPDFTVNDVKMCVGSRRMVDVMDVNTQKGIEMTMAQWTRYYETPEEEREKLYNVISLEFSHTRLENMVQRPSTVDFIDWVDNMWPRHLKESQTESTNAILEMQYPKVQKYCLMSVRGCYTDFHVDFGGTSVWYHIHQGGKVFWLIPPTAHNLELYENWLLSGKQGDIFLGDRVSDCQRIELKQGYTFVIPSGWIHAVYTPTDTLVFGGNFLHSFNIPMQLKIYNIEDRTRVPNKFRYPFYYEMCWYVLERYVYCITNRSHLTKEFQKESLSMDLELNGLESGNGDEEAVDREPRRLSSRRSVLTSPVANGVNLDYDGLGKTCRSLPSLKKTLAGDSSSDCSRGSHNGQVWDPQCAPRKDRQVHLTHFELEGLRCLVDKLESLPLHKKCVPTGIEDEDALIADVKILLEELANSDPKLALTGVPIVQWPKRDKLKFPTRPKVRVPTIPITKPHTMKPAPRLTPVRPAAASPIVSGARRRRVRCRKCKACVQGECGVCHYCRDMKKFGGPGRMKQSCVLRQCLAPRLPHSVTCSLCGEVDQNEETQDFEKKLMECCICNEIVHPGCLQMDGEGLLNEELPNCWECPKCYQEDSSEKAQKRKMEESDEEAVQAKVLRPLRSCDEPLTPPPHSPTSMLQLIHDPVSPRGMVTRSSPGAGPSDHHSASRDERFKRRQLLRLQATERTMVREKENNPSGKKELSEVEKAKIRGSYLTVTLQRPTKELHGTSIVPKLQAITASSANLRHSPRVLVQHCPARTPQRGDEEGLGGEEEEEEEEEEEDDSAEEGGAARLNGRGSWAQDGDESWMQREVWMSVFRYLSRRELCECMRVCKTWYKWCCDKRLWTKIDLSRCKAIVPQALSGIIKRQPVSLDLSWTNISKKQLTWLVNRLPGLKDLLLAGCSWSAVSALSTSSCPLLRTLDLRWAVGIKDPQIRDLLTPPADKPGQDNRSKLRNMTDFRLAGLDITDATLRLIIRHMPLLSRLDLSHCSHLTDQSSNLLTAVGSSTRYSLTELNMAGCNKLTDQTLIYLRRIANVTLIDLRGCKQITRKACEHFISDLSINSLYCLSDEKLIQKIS
As for the experimental part:
(§1) The demethylase AlphaScreen assay was performed in 384-well plate format using white proxiplates (PerkinElmer), and transfer of compound (100 nl) was performed using an ECHO 550 acoustic dispenser (Labcyte). […] All subsequent steps were carried out in assay buffer (50 mM HEPES, pH 7.5, 0.1% (wt/vol) BSA and 0.01% (vol/vol) Tween-20). In brief, 5 μl of assay buffer containing demethylase enzyme at 2× final assay concentration (see Supplementary Table 3c for assay specifics) was preincubated for 15 min with dilutions of compound.

In test [2] the target is T2, Lysine-specific demethylase 3A (Homo sapiens, UniProt Q9Y4C1).
T2 sequence (Q9Y4C1 whole entry): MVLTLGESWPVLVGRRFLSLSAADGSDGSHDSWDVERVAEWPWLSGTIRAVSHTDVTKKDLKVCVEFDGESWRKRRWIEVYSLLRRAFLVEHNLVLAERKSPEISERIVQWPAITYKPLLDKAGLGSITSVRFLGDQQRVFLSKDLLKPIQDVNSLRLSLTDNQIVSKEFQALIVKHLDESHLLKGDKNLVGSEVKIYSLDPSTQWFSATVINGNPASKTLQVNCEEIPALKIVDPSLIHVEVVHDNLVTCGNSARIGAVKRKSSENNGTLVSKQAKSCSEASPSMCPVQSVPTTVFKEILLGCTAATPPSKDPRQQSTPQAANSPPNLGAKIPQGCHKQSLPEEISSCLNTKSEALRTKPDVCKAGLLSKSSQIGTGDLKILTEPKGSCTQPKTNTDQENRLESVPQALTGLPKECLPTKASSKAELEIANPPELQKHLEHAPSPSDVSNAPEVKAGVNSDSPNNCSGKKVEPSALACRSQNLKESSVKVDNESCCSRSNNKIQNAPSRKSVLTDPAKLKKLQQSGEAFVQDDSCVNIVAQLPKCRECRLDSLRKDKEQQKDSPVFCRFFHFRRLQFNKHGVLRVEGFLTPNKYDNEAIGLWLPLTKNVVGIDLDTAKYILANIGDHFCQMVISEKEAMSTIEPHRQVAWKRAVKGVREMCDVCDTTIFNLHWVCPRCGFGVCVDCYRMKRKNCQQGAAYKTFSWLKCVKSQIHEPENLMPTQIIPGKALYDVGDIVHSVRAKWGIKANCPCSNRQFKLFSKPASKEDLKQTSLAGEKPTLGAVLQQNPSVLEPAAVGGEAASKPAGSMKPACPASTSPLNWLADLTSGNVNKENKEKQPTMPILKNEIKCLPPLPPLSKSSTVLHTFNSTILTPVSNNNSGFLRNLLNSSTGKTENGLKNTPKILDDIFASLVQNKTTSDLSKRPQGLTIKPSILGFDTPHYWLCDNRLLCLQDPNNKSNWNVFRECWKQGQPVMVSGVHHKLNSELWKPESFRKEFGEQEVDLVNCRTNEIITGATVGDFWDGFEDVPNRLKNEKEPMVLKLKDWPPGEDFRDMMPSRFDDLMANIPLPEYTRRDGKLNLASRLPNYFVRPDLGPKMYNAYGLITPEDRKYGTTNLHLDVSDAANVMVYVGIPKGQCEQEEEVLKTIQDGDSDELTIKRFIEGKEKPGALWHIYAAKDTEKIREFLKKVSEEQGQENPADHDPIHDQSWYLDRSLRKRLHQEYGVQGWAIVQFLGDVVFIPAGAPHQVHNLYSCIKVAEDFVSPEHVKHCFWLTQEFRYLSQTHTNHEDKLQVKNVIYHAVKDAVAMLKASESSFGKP
As for the experimental part: as §1

The target in test [3] is T3, Lysine-specific demethylase 4C (Homo sapiens, UniProt Q9H3R0).
T3 sequence (Q9H3R0 whole entry): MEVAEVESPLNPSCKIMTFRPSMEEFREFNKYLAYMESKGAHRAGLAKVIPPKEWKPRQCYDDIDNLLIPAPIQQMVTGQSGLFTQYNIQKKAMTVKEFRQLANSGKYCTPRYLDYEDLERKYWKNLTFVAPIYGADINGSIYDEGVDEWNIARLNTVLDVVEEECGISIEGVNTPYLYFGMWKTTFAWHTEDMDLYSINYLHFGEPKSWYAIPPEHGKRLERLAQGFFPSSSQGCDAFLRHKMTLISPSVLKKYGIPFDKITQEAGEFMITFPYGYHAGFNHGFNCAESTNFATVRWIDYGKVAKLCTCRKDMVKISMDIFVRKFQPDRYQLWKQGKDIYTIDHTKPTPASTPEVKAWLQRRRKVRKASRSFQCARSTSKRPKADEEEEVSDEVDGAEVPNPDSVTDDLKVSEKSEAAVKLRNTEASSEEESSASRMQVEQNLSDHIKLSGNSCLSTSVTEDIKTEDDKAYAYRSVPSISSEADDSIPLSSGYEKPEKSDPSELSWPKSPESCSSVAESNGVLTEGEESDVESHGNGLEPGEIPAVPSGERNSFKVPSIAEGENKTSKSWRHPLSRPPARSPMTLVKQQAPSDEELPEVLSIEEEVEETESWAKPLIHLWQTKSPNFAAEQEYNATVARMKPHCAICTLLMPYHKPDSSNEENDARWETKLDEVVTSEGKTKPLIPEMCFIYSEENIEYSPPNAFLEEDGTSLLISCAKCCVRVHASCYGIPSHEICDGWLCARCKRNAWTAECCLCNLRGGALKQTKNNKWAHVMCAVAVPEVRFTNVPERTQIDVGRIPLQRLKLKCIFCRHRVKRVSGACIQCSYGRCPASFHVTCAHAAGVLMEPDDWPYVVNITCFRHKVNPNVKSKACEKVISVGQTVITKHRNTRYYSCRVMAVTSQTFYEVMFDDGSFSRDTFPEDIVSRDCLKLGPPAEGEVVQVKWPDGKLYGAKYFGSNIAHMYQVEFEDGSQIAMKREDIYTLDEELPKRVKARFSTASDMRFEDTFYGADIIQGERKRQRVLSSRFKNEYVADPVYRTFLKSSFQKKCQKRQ
As to the method:
as §1

The target of test [4] is T4, Lysine-specific demethylase 5A [1-801] (Homo sapiens, UniProt P29375).
T4 construct: 1-801
T4 sequence (P29375 whole entry): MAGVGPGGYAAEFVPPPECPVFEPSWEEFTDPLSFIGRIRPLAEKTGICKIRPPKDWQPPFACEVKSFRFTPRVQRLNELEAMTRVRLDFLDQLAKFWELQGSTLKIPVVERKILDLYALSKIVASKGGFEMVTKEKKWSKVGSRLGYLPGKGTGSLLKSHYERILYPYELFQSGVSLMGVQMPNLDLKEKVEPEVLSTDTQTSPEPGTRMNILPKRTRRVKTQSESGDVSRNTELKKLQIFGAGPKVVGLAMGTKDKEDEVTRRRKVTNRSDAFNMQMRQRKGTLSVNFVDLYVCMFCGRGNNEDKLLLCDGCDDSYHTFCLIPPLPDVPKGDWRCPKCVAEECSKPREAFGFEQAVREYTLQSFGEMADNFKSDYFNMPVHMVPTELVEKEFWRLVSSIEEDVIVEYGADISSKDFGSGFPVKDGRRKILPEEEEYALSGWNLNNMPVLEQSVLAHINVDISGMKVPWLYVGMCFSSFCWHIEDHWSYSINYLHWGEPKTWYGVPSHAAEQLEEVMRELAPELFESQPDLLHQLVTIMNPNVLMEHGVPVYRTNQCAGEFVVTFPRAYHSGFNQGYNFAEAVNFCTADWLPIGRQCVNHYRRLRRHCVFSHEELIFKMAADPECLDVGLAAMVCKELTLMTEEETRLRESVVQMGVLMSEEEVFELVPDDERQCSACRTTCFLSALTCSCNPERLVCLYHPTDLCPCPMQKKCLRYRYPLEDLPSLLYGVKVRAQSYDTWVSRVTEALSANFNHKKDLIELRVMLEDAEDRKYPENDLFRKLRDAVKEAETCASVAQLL
As for the experimental part: as §1

Test [5] concerns the target Lysine-specific demethylase 5B (Homo sapiens, UniProt Q9UGL1). As for the experimental part: as §1
In test [6] the target is T5, Lysine-specific demethylase 5C [1-765] (Homo sapiens, UniProt P41229).
T5 construct: 1-765
T5 sequence (P41229 whole entry): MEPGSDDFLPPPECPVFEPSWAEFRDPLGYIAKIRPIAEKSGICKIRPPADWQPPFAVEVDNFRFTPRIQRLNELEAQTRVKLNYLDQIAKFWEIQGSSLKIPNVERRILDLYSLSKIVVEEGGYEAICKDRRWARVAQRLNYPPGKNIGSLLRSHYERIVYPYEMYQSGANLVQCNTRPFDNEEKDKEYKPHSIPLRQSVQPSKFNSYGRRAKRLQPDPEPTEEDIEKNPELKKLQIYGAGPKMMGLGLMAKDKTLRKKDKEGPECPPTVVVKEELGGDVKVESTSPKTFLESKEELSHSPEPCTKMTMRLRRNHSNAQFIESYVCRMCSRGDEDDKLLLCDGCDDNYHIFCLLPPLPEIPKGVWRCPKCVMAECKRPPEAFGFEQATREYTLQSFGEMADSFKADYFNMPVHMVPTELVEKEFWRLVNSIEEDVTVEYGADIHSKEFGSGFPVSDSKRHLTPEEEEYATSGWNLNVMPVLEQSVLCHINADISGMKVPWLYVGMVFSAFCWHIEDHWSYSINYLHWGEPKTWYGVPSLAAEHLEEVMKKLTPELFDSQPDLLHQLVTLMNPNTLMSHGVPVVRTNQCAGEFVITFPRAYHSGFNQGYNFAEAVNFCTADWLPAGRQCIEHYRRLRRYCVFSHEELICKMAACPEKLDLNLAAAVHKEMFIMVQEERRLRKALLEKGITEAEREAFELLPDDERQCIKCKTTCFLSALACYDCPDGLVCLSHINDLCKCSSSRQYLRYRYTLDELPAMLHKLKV
As for the experimental part:
as §1

Test [7] has as its target T6, Lysine-specific demethylase 5D [1-775] (Homo sapiens, UniProt Q9BY66).
T6 construct: 1-775
As for the experimental part:
as §1

For test [8], the target named is Lysine-specific demethylase 6B (Homo sapiens, UniProt O15054). As to the method:
as §1

T6 sequence (Q9BY66 1-775): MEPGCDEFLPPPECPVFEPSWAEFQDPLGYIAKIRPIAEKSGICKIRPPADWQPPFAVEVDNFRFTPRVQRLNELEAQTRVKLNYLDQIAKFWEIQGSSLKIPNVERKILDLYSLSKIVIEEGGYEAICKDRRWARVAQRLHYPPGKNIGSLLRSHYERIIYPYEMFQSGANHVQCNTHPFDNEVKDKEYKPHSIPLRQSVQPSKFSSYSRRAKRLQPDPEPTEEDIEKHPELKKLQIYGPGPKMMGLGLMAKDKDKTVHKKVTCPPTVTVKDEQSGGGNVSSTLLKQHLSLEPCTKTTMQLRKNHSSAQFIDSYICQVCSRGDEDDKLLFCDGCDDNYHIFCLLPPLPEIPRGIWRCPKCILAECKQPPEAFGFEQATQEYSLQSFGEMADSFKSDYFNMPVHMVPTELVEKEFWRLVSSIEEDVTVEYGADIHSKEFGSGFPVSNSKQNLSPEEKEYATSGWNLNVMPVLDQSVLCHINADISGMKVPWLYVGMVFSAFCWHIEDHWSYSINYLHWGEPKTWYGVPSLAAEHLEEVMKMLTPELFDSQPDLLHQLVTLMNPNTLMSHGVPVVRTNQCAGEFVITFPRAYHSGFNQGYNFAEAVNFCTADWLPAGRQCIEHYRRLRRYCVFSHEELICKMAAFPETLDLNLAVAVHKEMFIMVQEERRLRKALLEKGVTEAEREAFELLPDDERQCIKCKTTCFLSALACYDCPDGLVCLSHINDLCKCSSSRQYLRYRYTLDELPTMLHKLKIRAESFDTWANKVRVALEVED
Sequence of Lysine-specific demethylase 5B (Q9UGL1 whole entry): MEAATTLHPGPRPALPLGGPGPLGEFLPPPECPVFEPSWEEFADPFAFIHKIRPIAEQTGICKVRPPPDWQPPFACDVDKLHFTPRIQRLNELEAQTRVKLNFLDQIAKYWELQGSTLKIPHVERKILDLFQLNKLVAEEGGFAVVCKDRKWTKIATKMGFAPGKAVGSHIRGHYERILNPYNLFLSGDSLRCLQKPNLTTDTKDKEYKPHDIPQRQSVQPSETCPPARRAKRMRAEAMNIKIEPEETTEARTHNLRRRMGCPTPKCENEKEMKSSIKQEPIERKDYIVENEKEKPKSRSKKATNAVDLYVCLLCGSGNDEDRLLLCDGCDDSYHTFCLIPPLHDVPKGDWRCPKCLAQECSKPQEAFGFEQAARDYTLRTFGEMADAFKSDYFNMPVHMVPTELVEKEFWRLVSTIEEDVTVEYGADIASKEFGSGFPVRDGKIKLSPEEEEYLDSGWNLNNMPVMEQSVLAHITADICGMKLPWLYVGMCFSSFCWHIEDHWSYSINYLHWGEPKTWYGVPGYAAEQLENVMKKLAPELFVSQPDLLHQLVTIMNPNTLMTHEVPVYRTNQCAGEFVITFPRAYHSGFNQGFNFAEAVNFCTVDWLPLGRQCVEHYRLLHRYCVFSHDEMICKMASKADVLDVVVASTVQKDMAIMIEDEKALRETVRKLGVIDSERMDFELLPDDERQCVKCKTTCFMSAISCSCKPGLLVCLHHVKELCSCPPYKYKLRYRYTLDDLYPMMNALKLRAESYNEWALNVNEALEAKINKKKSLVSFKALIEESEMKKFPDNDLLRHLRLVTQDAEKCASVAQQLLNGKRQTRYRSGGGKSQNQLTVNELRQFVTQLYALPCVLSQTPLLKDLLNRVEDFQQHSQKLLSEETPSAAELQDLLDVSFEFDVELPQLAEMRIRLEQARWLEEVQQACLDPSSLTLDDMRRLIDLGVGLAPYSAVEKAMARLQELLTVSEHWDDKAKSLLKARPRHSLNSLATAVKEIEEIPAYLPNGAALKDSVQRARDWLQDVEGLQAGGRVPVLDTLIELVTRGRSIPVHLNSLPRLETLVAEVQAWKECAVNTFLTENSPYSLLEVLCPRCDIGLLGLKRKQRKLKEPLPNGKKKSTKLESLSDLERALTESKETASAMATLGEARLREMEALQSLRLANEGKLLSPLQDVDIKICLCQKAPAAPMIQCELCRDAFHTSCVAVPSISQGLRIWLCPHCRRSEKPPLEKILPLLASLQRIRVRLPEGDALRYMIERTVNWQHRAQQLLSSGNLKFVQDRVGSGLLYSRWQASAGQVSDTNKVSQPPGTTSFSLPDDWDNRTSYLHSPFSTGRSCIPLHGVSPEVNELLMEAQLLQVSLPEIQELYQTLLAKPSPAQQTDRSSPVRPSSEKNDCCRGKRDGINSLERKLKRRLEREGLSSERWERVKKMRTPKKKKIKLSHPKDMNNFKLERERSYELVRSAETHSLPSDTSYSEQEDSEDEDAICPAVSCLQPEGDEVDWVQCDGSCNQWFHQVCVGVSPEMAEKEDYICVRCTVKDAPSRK
Sequence of Lysine-specific demethylase 6B (O15054 whole entry): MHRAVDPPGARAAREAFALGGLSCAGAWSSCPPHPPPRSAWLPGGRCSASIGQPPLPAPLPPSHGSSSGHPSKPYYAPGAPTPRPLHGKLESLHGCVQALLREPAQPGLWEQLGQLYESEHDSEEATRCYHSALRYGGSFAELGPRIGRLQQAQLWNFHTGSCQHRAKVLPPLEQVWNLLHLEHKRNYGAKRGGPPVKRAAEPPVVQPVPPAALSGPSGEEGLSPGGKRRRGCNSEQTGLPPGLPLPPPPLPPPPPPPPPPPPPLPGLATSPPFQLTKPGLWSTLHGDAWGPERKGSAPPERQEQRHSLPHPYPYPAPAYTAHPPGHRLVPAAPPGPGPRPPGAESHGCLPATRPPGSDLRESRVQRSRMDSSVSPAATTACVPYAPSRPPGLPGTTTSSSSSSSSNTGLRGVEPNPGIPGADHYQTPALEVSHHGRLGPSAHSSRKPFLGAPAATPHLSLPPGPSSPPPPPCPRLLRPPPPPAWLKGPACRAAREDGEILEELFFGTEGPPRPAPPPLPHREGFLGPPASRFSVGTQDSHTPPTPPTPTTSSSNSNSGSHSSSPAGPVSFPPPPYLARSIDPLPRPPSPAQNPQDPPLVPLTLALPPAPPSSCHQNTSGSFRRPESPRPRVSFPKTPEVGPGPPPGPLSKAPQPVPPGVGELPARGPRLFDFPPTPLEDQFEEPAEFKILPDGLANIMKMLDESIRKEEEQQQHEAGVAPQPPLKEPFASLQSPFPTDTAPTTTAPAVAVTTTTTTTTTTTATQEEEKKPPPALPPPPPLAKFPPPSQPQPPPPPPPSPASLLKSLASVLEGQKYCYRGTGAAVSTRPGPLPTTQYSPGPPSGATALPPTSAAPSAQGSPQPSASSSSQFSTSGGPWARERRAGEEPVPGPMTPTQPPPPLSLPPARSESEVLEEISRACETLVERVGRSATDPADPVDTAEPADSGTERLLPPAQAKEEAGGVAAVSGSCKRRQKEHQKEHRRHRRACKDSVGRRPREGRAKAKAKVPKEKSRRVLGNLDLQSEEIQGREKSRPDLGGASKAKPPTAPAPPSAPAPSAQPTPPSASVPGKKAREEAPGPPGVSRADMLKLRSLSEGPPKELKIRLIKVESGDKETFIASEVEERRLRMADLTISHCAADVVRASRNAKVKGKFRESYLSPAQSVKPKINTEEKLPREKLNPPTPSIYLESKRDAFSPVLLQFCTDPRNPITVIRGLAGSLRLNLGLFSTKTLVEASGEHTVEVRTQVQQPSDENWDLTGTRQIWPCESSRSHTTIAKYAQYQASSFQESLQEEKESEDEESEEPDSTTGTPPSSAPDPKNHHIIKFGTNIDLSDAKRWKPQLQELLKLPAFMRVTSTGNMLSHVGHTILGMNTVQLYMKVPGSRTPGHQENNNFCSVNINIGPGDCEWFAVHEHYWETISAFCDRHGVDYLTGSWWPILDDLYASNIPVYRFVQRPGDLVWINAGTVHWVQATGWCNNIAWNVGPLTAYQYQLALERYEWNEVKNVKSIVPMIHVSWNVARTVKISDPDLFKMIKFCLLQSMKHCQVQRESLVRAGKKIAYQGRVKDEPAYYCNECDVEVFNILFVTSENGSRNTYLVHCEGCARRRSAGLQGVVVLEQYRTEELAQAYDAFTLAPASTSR

As to `CCN(CCN(C)C)C(=O)CNCc1cc(C(=O)O)ccn1` [KDOAM-20], the IC50 in test [1] worked out at 2200 nM; in test [2], 780 nM; in test [3], 210 nM; in test [4], 7 nM; in test [5], 4 nM; in test [6], 13 nM. Further, the results for the IC50 in test [7] and in test [8] were 15 nM and 1400 nM, respectively.

For `O=C(O)CCNc1cc(N2CCc3ccccc3CC2)nc(-c2ccccn2)n1` [GSK-J1], the IC50 in test [3] was 64900 nM; in test [4], 3900 nM; in test [5] it was 550 nM; in test [6], 1500 nM; in test [7], 1500 nM.

As to `O=C(O)CNC(=O)C(=O)O`, the concentration for half-maximal inhibition (IC50) is 41500 nM in test [3], 6900 nM in test [4], 24500 nM in test [5] and 5800 nM in test [7].

For `O=C(O)c1ccnc(C(=O)O)c1` [pyridine-2,4-dicarboxylic acid], the values for the IC50 in test [4] and in test [7] were 1300 nM and 2500 nM, respectively.

As to `O=c1[nH]c(Oc2cnn(Cc3ccccc3)c2)nc2cnccc12` [GSK467], the IC50 in test [2] was 33900 nM; in test [3] it was 5100 nM; in test [4] it was 24 nM; in test [5], 26 nM; in test [6] it was 65 nM; in test [7], 77 nM.
